Values quoted from earlier work as cited in US11207317B2, “Methylnaltrexone nasal formulations, methods of making, and use thereof” (AptaPharma Inc., priority 2012, dated 2021).

Tested on: opioid-induced reduction in bowel motility
Details: healthy volunteers; intravenous or oral administration

C[N@+]1(CC2CC2)CC[C@]23c4c5ccc(O)c4O[C@H]2C(=O)CC[C@@]3(O)[C@H]1C5 [methylnaltrexone, Methylnaltrexone]
effect on opioid-induced reduction in bowel motility: reverse opioid-induced reduction in bowel motility
